The values below come from publication PMC11412900 (Molecular Psychiatry, 2024).

This assay has as its target T1, SERT (Homo sapiens, UniProt P31645).
T1 construct: YFP (yellow-fluorescent protein); expressed in transfected cells
Briefly: Superfusion release assay of [3H]5-HT. Format: cell-based. As to the method:
Concentration-response release assays were performed using a superfusion assay. […] Afterwards, cells were manually and gently washed once with KHB, and superfused with KHB at a rate of 0.5 mL/min for 10 min at room temperature (RT), to establish a stable basal release. Three 2 min-fractions of basal release were collected in 10 mL counting vials before exposing cells to various concentrations of 5-MeO-pyr-T (five fractions). Subsequently, the cells were superfused with 1% SDS for three final fractions to determine total radioactivity present at cells at the end of the experiment. 2 mL of scintillation cocktail was added to each vial, radioactivity was measured and expressed as percentage of released radioactivity in relation to the total radioactivity present at the beginning of that fraction. Experiments were performed per triplicate for five independent experiments.

T1 sequence (P31645 whole entry): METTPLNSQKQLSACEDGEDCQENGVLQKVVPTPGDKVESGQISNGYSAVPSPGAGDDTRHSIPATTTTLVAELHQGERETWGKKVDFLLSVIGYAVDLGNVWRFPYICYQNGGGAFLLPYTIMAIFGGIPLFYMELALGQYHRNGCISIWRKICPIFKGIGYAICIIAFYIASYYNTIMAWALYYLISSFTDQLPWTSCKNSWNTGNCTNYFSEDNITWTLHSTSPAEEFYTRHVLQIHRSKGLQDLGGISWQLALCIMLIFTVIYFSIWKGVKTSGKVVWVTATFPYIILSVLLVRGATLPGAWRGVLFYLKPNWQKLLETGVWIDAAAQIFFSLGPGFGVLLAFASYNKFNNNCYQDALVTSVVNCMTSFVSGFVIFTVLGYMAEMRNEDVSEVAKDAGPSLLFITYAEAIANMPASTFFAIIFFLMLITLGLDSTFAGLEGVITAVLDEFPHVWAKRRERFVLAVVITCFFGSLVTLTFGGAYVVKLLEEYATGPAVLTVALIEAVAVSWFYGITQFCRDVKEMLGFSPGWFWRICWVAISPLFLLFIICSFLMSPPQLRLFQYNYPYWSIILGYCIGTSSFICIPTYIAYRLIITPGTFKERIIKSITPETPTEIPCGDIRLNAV

For orientation: EC50 means the concentration giving half of the maximal effect. For the compound `COc1ccc2[nH]cc(CCN3CCCC3)c2c1` [5-MeO-pyr-T], the “5-HT releaser type” value (peak of efflux vs positive control pCA) is on record as 5-HT partial releaser. Also, under “read-out: 5-HT release EC50, superfusion, N = 5”, the EC50 was 5.7 ± 1.59 µM.
